Laboratory results from ChEMBL document CHEMBL1201862, “PubChem BioAssay data set” (2004).
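Protocol summary: plate cells (96-well), add compound at 5 concentrations, incubate 48 h, interpolate endpoints linearly. Abbreviation: GI50, concentration required for 50% inhibition of growth.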 Active and inactive are the calls of the source. Rule as the data show it: active = GI50 up to about 1.1 µM and inactive = higher.

What was measured:
Experiment in all cases: NCI-60 cell line screen, 48 h
SK-MEL-5 = test system: SK-MEL-5
K562 = test system: K562
LXFL 529 = test system: LXFL 529
DLD-1 = test system: DLD-1
M14 = test system: M14
SR = test system: SR
SK-MEL-2 = test system: SK-MEL-2
SN12C = test system: SN12C
DMS-273 = test system: DMS-273
HL-60 = test system: HL-60
NCI-H23 = test system: NCI-H23
NCI-H522 = test system: NCI-H522
OVCAR-4 = test system: OVCAR-4
SF-539 = test system: SF-539
EKVX = test system: EKVX
NCI-H460 = test system: NCI-H460
OVCAR-3 = test system: OVCAR-3
OVCAR-8 = test system: OVCAR-8
CAKI-1 = test system: CAKI-1
HOP-92 = test system: HOP-92
M19-MEL = test system: M19-MEL
SW-620 = test system: SW-620
SK-MEL-28 = test system: SK-MEL-28
HOP-62 = test system: HOP-62
786-0 = test system: 786-0
COLO 205 = test system: COLO 205
KM12 = test system: KM12
U-251 = test system: U-251
A498 = test system: A498
LOX IMVI = test system: LOX IMVI
SNB-75 = test system: SNB-75
CCRF-CEM = test system: CCRF-CEM
HCT-116 = test system: HCT-116
ACHN = test system: ACHN
IGROV-1 = test system: IGROV-1
HCC 2998 = test system: HCC 2998
SF-295 = test system: SF-295
DMS-114 = test system: DMS-114
MOLT-4 = test system: MOLT-4
A549 = test system: A549
RPMI-8226 = test system: RPMI-8226
SF-268 = test system: SF-268
UO-31 = test system: UO-31
UACC-257 = test system: UACC-257
SK-OV-3 = test system: SK-OV-3
HCT-15 = test system: HCT-15
HT-29 = test system: HT-29
Malme-3M = test system: Malme-3M
UACC-62 = test system: UACC-62
SNB-78 = test system: SNB-78

Question: CCOC(=O)/C=C1\Nc2ccccc2C(c2ccccc2)=NC1OC(C)=O (stereo not given) was tested. Which GI50 (SK-MEL-5) did it give?
Answer: Its GI50 is > 100 µM (inactive).

Question: What about the GI50 (K562) of the same molecule?
Answer: Its GI50 is 97.1 µM (inactive).

Question: What about the GI50 (LXFL 529) of the same molecule?
Answer: Its GI50 is > 100 µM (inactive).

Question: What about the GI50 (DLD-1) of the same molecule?
Answer: Its GI50 is > 100 µM (inactive).

Question: What about the GI50 (M14) of the same molecule?
Answer: The GI50 was > 100 µM (inactive).

Question: What about the GI50 (SR) of the same molecule?
Answer: Its GI50 is 99.1 µM (inactive).

Question: And the GI50 (SK-MEL-2)?
Answer: Its GI50 is > 100 µM (inactive).

Question: And the GI50 (SN12C)?
Answer: The GI50 was > 100 µM (inactive).

Question: And the GI50 (DMS-273)?
Answer: Its GI50 is > 100 µM (inactive).

Question: And the GI50 (HL-60)?
Answer: The GI50 was 81.5 µM (inactive).

Question: And the GI50 (NCI-H23)?
Answer: Its GI50 is > 100 µM (inactive).

Question: What about the GI50 (NCI-H522) of the same molecule?
Answer: The GI50 was > 100 µM (inactive).

Question: What about the GI50 (OVCAR-4) of the same molecule?
Answer: The GI50 was > 100 µM (inactive).

Question: What about the GI50 (SF-539) of the same molecule?
Answer: The GI50 was > 100 µM (inactive).

Question: And the GI50 (EKVX)?
Answer: The GI50 was > 100 µM (inactive).

Question: And the GI50 (NCI-H460)?
Answer: Its GI50 is > 100 µM (inactive).

Question: And the GI50 (OVCAR-3)?
Answer: The GI50 was > 100 µM (inactive).

Question: What about the GI50 (OVCAR-8) of the same molecule?
Answer: The GI50 was > 100 µM (inactive).

Question: What about the GI50 (CAKI-1) of the same molecule?
Answer: The GI50 was 94.6 µM (inactive).

Question: What about the GI50 (HOP-92) of the same molecule?
Answer: The GI50 was 32.1 µM (inactive).

Question: What about the GI50 (M19-MEL) of the same molecule?
Answer: Its GI50 is > 100 µM (inactive).

Question: What about the GI50 (SW-620) of the same molecule?
Answer: The GI50 was > 100 µM (inactive).

Question: What about the GI50 (SK-MEL-28) of the same molecule?
Answer: Its GI50 is > 100 µM (inactive).

Question: What about the GI50 (HOP-62) of the same molecule?
Answer: The GI50 was > 100 µM (inactive).

Question: What about the GI50 (786-0) of the same molecule?
Answer: The GI50 was > 100 µM (inactive).

Question: What about the GI50 (COLO 205) of the same molecule?
Answer: Its GI50 is > 100 µM (inactive).

Question: And the GI50 (KM12)?
Answer: The GI50 was > 100 µM (inactive).

Question: And the GI50 (U-251)?
Answer: The GI50 was > 100 µM (inactive).

Question: And the GI50 (A498)?
Answer: The GI50 was > 100 µM (inactive).

Question: And the GI50 (LOX IMVI)?
Answer: Its GI50 is > 100 µM (inactive).

Question: And the GI50 (SNB-75)?
Answer: The GI50 was 31.9 µM (inactive).

Question: And the GI50 (CCRF-CEM)?
Answer: The GI50 was > 100 µM (inactive).

Question: And the GI50 (HCT-116)?
Answer: The GI50 was > 100 µM (inactive).

Question: What about the GI50 (ACHN) of the same molecule?
Answer: Its GI50 is > 100 µM (inactive).

Question: What about the GI50 (IGROV-1) of the same molecule?
Answer: The GI50 was > 100 µM (inactive).

Question: And the GI50 (HCC 2998)?
Answer: The GI50 was > 100 µM (inactive).

Question: What about the GI50 (SF-295) of the same molecule?
Answer: The GI50 was > 100 µM (inactive).

Question: What about the GI50 (DMS-114) of the same molecule?
Answer: Its GI50 is > 100 µM (inactive).

Question: What about the GI50 (MOLT-4) of the same molecule?
Answer: Its GI50 is > 100 µM (inactive).

Question: And the GI50 (A549)?
Answer: Its GI50 is > 100 µM (inactive).

Question: What about the GI50 (RPMI-8226) of the same molecule?
Answer: Its GI50 is 76.6 µM (inactive).

Question: And the GI50 (SF-268)?
Answer: Its GI50 is > 100 µM (inactive).

Question: What about the GI50 (UO-31) of the same molecule?
Answer: The GI50 was 44 µM (inactive).

Question: What about the GI50 (UACC-257) of the same molecule?
Answer: Its GI50 is > 100 µM (inactive).

Question: What about the GI50 (SK-OV-3) of the same molecule?
Answer: Its GI50 is > 100 µM (inactive).

Question: And the GI50 (HCT-15)?
Answer: The GI50 was over 100 µM.

Question: What about the GI50 (HT-29) of the same molecule?
Answer: Its GI50 is 57.5 µM (inactive).

Question: And the GI50 (Malme-3M)?
Answer: Its GI50 is > 100 µM (inactive).

Question: And the GI50 (UACC-62)?
Answer: The GI50 was 79.6 µM (inactive).

Question: And the GI50 (SNB-78)?
Answer: The GI50 was > 100 µM (inactive).
